# According to PubChem BioAssay (NCI):
#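 Assay format: 96-well plates, 48-hour exposure. GI50 = concentration required for 50% inhibition of growth. TGI denotes the concentration required for complete inhibition of growth.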
# Tests used:
# Experiment in all cases: growth of human tumour cells (NCI), 48 h
# DU-145 prostate = tested on: DU-145 prostate
# HOP-92 NSCLC = tested on: HOP-92 NSCLC
# COLO 205 colon = tested on: COLO 205 colon
# TK-10 renal = tested on: TK-10 renal
# UACC-62 melanoma = tested on: UACC-62 melanoma
# MCF7 breast = tested on: MCF7 breast
# LOX IMVI melanoma = tested on: LOX IMVI melanoma
# HCC-2998 colon = tested on: HCC-2998 colon
# PC-3 prostate = tested on: PC-3 prostate
# RXF 393 renal = tested on: RXF 393 renal
# SNB-19 CNS = tested on: SNB-19 CNS
# A549 NSCLC = tested on: A549 NSCLC
# MDA-N = tested on: MDA-N
# NCI-H226 lung = tested on: NCI-H226 lung
# OVCAR-8 ovarian = tested on: OVCAR-8 ovarian
# SF-295 CNS = tested on: SF-295 CNS
# SW-620 colon = tested on: SW-620 colon
# SF-539 CNS = tested on: SF-539 CNS
# EKVX NSCLC = tested on: EKVX NSCLC
# SK-OV-3 ovarian = tested on: SK-OV-3 ovarian
# SF-268 CNS = tested on: SF-268 CNS
# CAKI-1 renal = tested on: CAKI-1 renal
# UO-31 renal = tested on: UO-31 renal
# HL-60(TB) leukemia = tested on: HL-60(TB) leukemia
# A498 renal = tested on: A498 renal
# NCI-H23 lung = tested on: NCI-H23 lung
# SK-MEL-28 melanoma = tested on: SK-MEL-28 melanoma
# ACHN renal = tested on: ACHN renal
# HCT-116 colon = tested on: HCT-116 colon
# KM12 colon = tested on: KM12 colon
# SN12C renal = tested on: SN12C renal
# M14 melanoma = tested on: M14 melanoma
# IGROV1 ovarian = tested on: IGROV1 ovarian
# HCT-15 colon = tested on: HCT-15 colon
# BT-549 breast = tested on: BT-549 breast
# NCI-H522 lung = tested on: NCI-H522 lung
# MALME-3M melanoma = tested on: MALME-3M melanoma
# HOP-62 NSCLC = tested on: HOP-62 NSCLC
# OVCAR-4 ovarian = tested on: OVCAR-4 ovarian
# MDA-MB-231 breast = tested on: MDA-MB-231 breast
# SR leukemia = tested on: SR leukemia
# CCRF-CEM leukemia = tested on: CCRF-CEM leukemia
# SNB-75 CNS = tested on: SNB-75 CNS
# MOLT-4 leukemia = tested on: MOLT-4 leukemia
# HS 578T breast = tested on: HS 578T breast
# UACC-257 melanoma = tested on: UACC-257 melanoma
# NCI-H460 lung = tested on: NCI-H460 lung
# 786-0 renal = tested on: 786-0 renal
# K-562 leukemia = tested on: K-562 leukemia
# RPMI-8226 leukemia = tested on: RPMI-8226 leukemia
# NCI/ADR-RES ovarian = tested on: NCI/ADR-RES ovarian
# OVCAR-3 ovarian = tested on: OVCAR-3 ovarian
# U251 CNS = tested on: U251 CNS
# MDA-MB-435 = tested on: MDA-MB-435
# OVCAR-5 ovarian = tested on: OVCAR-5 ovarian
# T-47D breast = tested on: T-47D breast
# SK-MEL-5 melanoma = tested on: SK-MEL-5 melanoma
# SK-MEL-2 melanoma = tested on: SK-MEL-2 melanoma
smiles,measurement,setting,value
Cc1cc(C)c2c(=O)cc(-c3cccc(Cl)c3)[nH]c2n1,TGI,DU-145 prostate,> 100 µM
same,TGI,HOP-92 NSCLC,> 100 µM
same,TGI,COLO 205 colon,> 67.1 µM
same,TGI,TK-10 renal,> 100 µM
same,TGI,UACC-62 melanoma,> 100 µM
same,TGI,MCF7 breast,> 100 µM
same,TGI,LOX IMVI melanoma,> 34.2 µM
same,TGI,HCC-2998 colon,> 100 µM
same,TGI,PC-3 prostate,0.0967 µM
same,TGI,RXF 393 renal,> 100 µM
same,TGI,SNB-19 CNS,> 100 µM
same,TGI,A549 NSCLC,> 100 µM
same,TGI,MDA-N,0.0529 µM
same,TGI,NCI-H226 lung,> 100 µM
same,TGI,OVCAR-8 ovarian,> 100 µM
same,TGI,SF-295 CNS,0.33 µM
same,TGI,SW-620 colon,> 100 µM
same,TGI,SF-539 CNS,0.464 µM
same,TGI,EKVX NSCLC,> 100 µM
same,TGI,SK-OV-3 ovarian,> 100 µM
same,TGI,SF-268 CNS,> 100 µM
same,GI50,CAKI-1 renal,0.204 µM
same,TGI,CAKI-1 renal,> 100 µM
same,TGI,UO-31 renal,> 100 µM
same,TGI,HL-60(TB) leukemia,2.15 µM
same,TGI,A498 renal,> 100 µM
same,TGI,NCI-H23 lung,> 100 µM
same,TGI,SK-MEL-28 melanoma,> 100 µM
same,TGI,ACHN renal,> 100 µM
same,TGI,HCT-116 colon,> 23.1 µM
same,TGI,KM12 colon,> 100 µM
same,TGI,SN12C renal,> 38.3 µM
same,TGI,M14 melanoma,> 100 µM
same,TGI,IGROV1 ovarian,> 100 µM
same,TGI,HCT-15 colon,> 100 µM
same,TGI,BT-549 breast,85.3 µM
same,TGI,NCI-H522 lung,0.742 µM
same,TGI,MALME-3M melanoma,> 100 µM
same,TGI,HOP-62 NSCLC,> 100 µM
same,TGI,OVCAR-4 ovarian,> 100 µM
same,TGI,MDA-MB-231 breast,8.09 µM
same,TGI,SR leukemia,> 100 µM
same,TGI,CCRF-CEM leukemia,> 100 µM
same,TGI,SNB-75 CNS,> 100 µM
same,TGI,MOLT-4 leukemia,> 38.8 µM
same,TGI,HS 578T breast,> 100 µM
same,TGI,UACC-257 melanoma,> 94.1 µM
same,TGI,NCI-H460 lung,> 100 µM
same,TGI,786-0 renal,> 55.1 µM
N#Cc1ccsc1Nc1ccccc1[N+](=O)[O-],TGI,DU-145 prostate,> 100 µM
same,TGI,HOP-92 NSCLC,> 100 µM
same,TGI,K-562 leukemia,> 100 µM
same,TGI,COLO 205 colon,> 100 µM
same,TGI,UACC-62 melanoma,> 100 µM
same,TGI,MCF7 breast,> 100 µM
same,TGI,HCC-2998 colon,> 100 µM
same,TGI,PC-3 prostate,> 100 µM
same,TGI,RXF 393 renal,> 100 µM
same,TGI,SNB-19 CNS,> 100 µM
same,TGI,A549 NSCLC,> 100 µM
same,TGI,MDA-N,> 100 µM
same,TGI,NCI-H226 lung,> 100 µM
same,TGI,OVCAR-8 ovarian,> 100 µM
same,TGI,SF-295 CNS,> 100 µM
same,TGI,SW-620 colon,> 100 µM
same,TGI,SF-539 CNS,> 100 µM
same,TGI,EKVX NSCLC,> 100 µM
same,TGI,SK-OV-3 ovarian,> 100 µM
same,TGI,SF-268 CNS,> 100 µM
same,TGI,CAKI-1 renal,> 100 µM
same,TGI,UO-31 renal,> 100 µM
same,TGI,RPMI-8226 leukemia,> 100 µM
same,TGI,NCI/ADR-RES ovarian,> 100 µM
same,TGI,A498 renal,> 100 µM
same,TGI,NCI-H23 lung,> 100 µM
same,TGI,SK-MEL-28 melanoma,> 100 µM
same,TGI,ACHN renal,> 100 µM
same,TGI,HCT-116 colon,> 100 µM
same,TGI,KM12 colon,> 100 µM
same,TGI,SN12C renal,> 100 µM
same,TGI,M14 melanoma,> 100 µM
same,TGI,IGROV1 ovarian,> 100 µM
same,TGI,HCT-15 colon,> 100 µM
same,TGI,OVCAR-3 ovarian,> 100 µM
same,TGI,U251 CNS,> 100 µM
same,TGI,MDA-MB-435,> 100 µM
same,TGI,BT-549 breast,> 100 µM
same,TGI,OVCAR-5 ovarian,> 100 µM
same,TGI,NCI-H522 lung,> 100 µM
same,TGI,MALME-3M melanoma,> 100 µM
same,TGI,HOP-62 NSCLC,> 100 µM
same,TGI,OVCAR-4 ovarian,> 100 µM
same,TGI,MDA-MB-231 breast,> 100 µM
same,TGI,T-47D breast,> 100 µM
same,TGI,SR leukemia,> 100 µM
same,TGI,CCRF-CEM leukemia,> 100 µM
same,TGI,SNB-75 CNS,> 100 µM
same,TGI,MOLT-4 leukemia,> 100 µM
same,TGI,UACC-257 melanoma,> 100 µM
same,TGI,NCI-H460 lung,> 100 µM
same,TGI,786-0 renal,> 100 µM
Cc1ccc2c(=O)cc(-c3cccc(Cl)c3)[nH]c2n1,TGI,DU-145 prostate,> 100 µM
same,TGI,HOP-92 NSCLC,> 100 µM
same,TGI,COLO 205 colon,> 35.8 µM
same,TGI,TK-10 renal,> 100 µM
same,TGI,UACC-62 melanoma,> 100 µM
same,TGI,MCF7 breast,> 36 µM
same,TGI,LOX IMVI melanoma,> 100 µM
same,TGI,HCC-2998 colon,41.5 µM
same,TGI,PC-3 prostate,> 100 µM
same,TGI,SNB-19 CNS,> 100 µM
same,TGI,A549 NSCLC,> 100 µM
same,TGI,MDA-N,> 100 µM
same,TGI,NCI-H226 lung,25.9 µM
same,TGI,OVCAR-8 ovarian,> 100 µM
same,TGI,SF-295 CNS,1.36 µM
same,TGI,SW-620 colon,> 100 µM
same,TGI,SF-539 CNS,0.0443 µM
same,TGI,EKVX NSCLC,> 100 µM
same,TGI,SK-OV-3 ovarian,> 100 µM
same,TGI,SF-268 CNS,> 100 µM
same,TGI,CAKI-1 renal,> 100 µM
same,TGI,UO-31 renal,> 100 µM
same,TGI,A498 renal,> 100 µM
same,TGI,NCI-H23 lung,> 31.6 µM
same,TGI,SK-MEL-28 melanoma,> 100 µM
same,TGI,SK-MEL-5 melanoma,4.7 µM
same,TGI,ACHN renal,> 100 µM
same,TGI,KM12 colon,> 37.5 µM
same,TGI,SN12C renal,> 100 µM
same,TGI,M14 melanoma,> 100 µM
same,TGI,IGROV1 ovarian,> 100 µM
same,TGI,HCT-15 colon,> 35.8 µM
same,TGI,OVCAR-3 ovarian,0.0274 µM
same,TGI,MDA-MB-435,0.0463 µM
same,TGI,BT-549 breast,> 100 µM
same,TGI,OVCAR-5 ovarian,> 100 µM
same,TGI,NCI-H522 lung,1.61 µM
same,TGI,MALME-3M melanoma,> 100 µM
same,TGI,OVCAR-4 ovarian,> 100 µM
same,TGI,MDA-MB-231 breast,3.63 µM
same,TGI,SR leukemia,> 100 µM
same,TGI,CCRF-CEM leukemia,> 100 µM
same,TGI,HS 578T breast,> 100 µM
same,TGI,UACC-257 melanoma,> 100 µM
same,TGI,NCI-H460 lung,> 100 µM
same,TGI,SK-MEL-2 melanoma,> 100 µM
same,TGI,786-0 renal,> 100 µM
